Experimental data as given in patent US10703755B2, “Substituted purine derivative” (SUMITOMO DAINIPPON PHARMA CO., LTD., priority 2016, dated 2020).

Biological target: human TLR7 (Homo sapiens (Human), UniProt Q9NYK1)
Assay: Test for evaluating the inhibition of the activation of human TLR7 (SEAP reporter, TLR7/NF-κB/SEAPorter HEK293 cell)
Format: cell-based
Conditions: R-848 200 nmol/L; for inhibitory effect against TLR7 in the test for evaluating inhibition of the activation of TLR7: SEAP activity, result in words; for IC50: SEAP reporter
How it was run: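 HEK293 cells stably expressing full-length human TLR7 and an NF-κB-driven SEAP reporter. They were grown in DMEM with 10% FBS and blasticidin, and seeded at 5×10^4 cells/well overnight at 37° C, 5% CO2. Inhibition of TLR7 activation was read as SEAP output.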

human TLR7, sequence (Q9NYK1 27-1049): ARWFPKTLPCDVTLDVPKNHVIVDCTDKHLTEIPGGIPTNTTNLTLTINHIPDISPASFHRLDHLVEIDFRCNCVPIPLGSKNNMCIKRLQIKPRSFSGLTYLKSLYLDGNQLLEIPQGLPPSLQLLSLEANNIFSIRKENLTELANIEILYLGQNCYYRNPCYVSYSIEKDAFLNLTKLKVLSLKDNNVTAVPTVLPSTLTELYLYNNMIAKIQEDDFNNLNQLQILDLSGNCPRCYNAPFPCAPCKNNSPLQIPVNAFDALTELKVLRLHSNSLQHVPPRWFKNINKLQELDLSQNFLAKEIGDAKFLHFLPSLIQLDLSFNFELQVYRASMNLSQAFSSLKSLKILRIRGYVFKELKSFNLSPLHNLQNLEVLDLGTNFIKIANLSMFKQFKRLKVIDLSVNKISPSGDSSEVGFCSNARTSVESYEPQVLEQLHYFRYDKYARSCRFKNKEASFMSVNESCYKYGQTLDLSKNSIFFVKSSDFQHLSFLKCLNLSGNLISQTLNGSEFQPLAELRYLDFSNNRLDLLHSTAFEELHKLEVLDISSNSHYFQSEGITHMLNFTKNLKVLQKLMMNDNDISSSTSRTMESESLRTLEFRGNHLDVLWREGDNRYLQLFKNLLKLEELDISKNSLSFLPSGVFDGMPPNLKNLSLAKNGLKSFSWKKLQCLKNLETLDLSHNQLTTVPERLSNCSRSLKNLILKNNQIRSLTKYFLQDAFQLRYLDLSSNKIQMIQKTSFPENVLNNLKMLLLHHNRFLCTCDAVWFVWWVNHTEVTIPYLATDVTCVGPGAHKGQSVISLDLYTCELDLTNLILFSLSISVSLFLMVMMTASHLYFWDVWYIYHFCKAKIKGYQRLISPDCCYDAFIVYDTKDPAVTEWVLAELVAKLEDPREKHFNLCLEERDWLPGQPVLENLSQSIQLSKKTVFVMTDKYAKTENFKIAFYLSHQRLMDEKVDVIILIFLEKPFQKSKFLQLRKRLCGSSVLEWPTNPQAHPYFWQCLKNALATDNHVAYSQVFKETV

SMILES | IC50 | inhibitory effect against TLR7 in the test for evaluating inhibition of the activation of TLR7
COc1nc(C)c2nc(-c3cncc(F)c3)n(Cc3ccc(C4CN5CCC4CC5)c(F)c3)c2n1 (centres unmarked) [Example 377, 9-[4-(1-azabicyclo[2.2.2]oct-3-yl)-3-fluorobenzyl]-8-(5-fluoropyridin-3-yl)-2-methoxy-6-methyl-9H-purine] | 7 nM | potent inhibitory effect against TLR7
CCOc1nc(N)c2nc(-c3cncc(F)c3)n(Cc3ccc(CN4CCOCC4)cc3)c2n1 [Example 97] | 100 nM | –
COc1nc(C)c2nc(-c3cncc(F)c3)n(Cc3ccc(O[C@H]4C[C@H]5CC[C@@H](C4)N5C)cc3F)c2n1 [Example 285, 9-(2-fluoro-4-{[(3-endo)-8-methyl-8-azabicyclo[3.2.1]oct-3-yl]oxy}benzyl)-8-(5-fluoropyridin-3-yl)-2-methoxy-6-methyl-9H-purine] | 2 nM | potent inhibitory effect against TLR7
COc1nc(C)c2nc(-c3cncc(C#N)c3)n(Cc3ccc(O[C@@H]4CN5CCC4CC5)cc3F)c2n1 [Example 322, 5-(9-{4-[(3S)-1-azabicyclo[2.2.2]oct-3-yloxy]-2-fluorobenzyl}-2-methoxy-6-methyl-9H-purin-8-yl)pyridine-3-carbonitrile] | 13 nM | potent inhibitory effect against TLR7
COc1nc(C)c2nc(-c3cccnc3)n(Cc3ccc(O[C@H]4C[C@H]5CC[C@@H](C4)N5)cc3F)c2n1 [Example 437] | 16 nM | potent inhibitory effect against TLR7
CCCCOc1nc(N)c2nc(-c3cccc(Cl)c3)n(Cc3ccccc3)c2n1 [Example 13] | 9300 nM | –
CCOc1nc(N)c2nc(-c3cncc(F)c3)n(Cc3ccc(CN4CCN(C)CC4)cc3)c2n1 [Example 81] | 60 nM | potent inhibitory effect against TLR7
COc1nc(C)c2nc(-c3cnc(C)nc3)n(Cc3ccc(C4CN5CCC4CC5)cc3F)c2n1 (centres unmarked) [Example 348] | 92 nM | potent inhibitory effect against TLR7
CCOc1nc(N)c2nc(-c3cncc(F)c3)n(Cc3cccnc3)c2n1 [Example 22] | 2000 nM | –
COc1nc(C)c2nc(-c3cccnc3)n(Cc3ccc(C4CN5CCC4CC5)cc3F)c2n1 (centres unmarked) [Example 303, 9-[4-(1-azabicyclo[2.2.2]oct-3-yl)-2-fluorobenzyl]-2-methoxy-6-methyl-8-(pyridin-3-yl)-9H-purine] | 7 nM | potent inhibitory effect against TLR7
CCOc1nc(N)c2nc(-c3cncc(F)c3)n(Cc3ccc(CN4CC(C(F)F)C4)cc3)c2n1 [Example 105] | 59 nM | potent inhibitory effect against TLR7
CCOc1nc(N)c2nc(-c3cncc(COC)c3)n(Cc3ccc(CN(C)C)cc3)c2n1 [Example 34] | 1700 nM | –
CCOc1nc(N)c2nc(-c3cncc(F)c3)n(Cc3ccc(N4CCN(C)CC4)cc3)c2n1 [Example 68, 2-Ethoxy-8-(5-fluoropyridin-3-yl)-9-[4-(4-methylpiperazin-1-yl)benzyl]-9H-purine-6-amine] | 180 nM | –

Now from value to molecule, other results behind:

IC50 | SMILES | inhibitory effect against TLR7 in the test for evaluating inhibition of the activation of TLR7
2660 nM | COc1nc(C)c2nc(-c3cncc(F)c3)n(Cc3cnn(C)c3)c2n1 [Example 243] | –
29 nM | CCOc1nc(C)c2nc(-c3cncc(F)c3)n(Cc3ccc(CN(CC)CC)cc3)c2n1 [Example 266] | potent inhibitory effect against TLR7
3500 nM | CCCCOc1nc(N)c2nc(-c3cncc(F)c3)n(Cc3cccc(C(=O)N4CCN(C)CC4)c3)c2n1 [Example 147] | –
1690 nM | CCOc1nc(C)c2nc(-c3cncc(F)c3)n(Cc3cnc(CC4CCN(C(=O)OC(C)(C)C)CC4)cc3OC)c2n1 [Example 369] | –
36 nM | CCOc1nc(C)c2nc(-c3cncc(F)c3)n(Cc3ccc(C4=CN5CCC4CC5)cc3OC)c2n1 [Example 354] | –
142 nM | CCOc1nc(C)c2nc(-c3cncc(F)c3)n(Cc3cnc(CC4CCN(C)CC4)cc3OC)c2n1 [Example 281] | –
357 nM | CCOc1nc(N)c2nc(-c3cncc(F)c3)n(Cc3cc(F)ccc3F)c2n1 [Example 240] | –
